In article PMC6691788, “Design and synthesis of phthalazine-based compounds as potent anticancer agents with potential antiangiogenic activity via VEGFR-2 inhibition” (Journal of Enzyme Inhibition and Medicinal Chemistry, 2019):
pIC50: −log10 of the molar value.

How the values were obtained:
VEGFR-2 tyrosine kinase = target: T1, VEGFR-2 tyrosine kinase (Homo sapiens, UniProt P35968); experiment: In vitro VEGFR-2 tyrosine kinase assay (BPS Bioscience); type: biochemical; conditions: for inhibition at 10 µM: read-out: VEGFR-2 % inhibition, 10 μM concentration
T1 construct: purchased BPS Bioscience 40301
T1 sequence (P35968 20-1356): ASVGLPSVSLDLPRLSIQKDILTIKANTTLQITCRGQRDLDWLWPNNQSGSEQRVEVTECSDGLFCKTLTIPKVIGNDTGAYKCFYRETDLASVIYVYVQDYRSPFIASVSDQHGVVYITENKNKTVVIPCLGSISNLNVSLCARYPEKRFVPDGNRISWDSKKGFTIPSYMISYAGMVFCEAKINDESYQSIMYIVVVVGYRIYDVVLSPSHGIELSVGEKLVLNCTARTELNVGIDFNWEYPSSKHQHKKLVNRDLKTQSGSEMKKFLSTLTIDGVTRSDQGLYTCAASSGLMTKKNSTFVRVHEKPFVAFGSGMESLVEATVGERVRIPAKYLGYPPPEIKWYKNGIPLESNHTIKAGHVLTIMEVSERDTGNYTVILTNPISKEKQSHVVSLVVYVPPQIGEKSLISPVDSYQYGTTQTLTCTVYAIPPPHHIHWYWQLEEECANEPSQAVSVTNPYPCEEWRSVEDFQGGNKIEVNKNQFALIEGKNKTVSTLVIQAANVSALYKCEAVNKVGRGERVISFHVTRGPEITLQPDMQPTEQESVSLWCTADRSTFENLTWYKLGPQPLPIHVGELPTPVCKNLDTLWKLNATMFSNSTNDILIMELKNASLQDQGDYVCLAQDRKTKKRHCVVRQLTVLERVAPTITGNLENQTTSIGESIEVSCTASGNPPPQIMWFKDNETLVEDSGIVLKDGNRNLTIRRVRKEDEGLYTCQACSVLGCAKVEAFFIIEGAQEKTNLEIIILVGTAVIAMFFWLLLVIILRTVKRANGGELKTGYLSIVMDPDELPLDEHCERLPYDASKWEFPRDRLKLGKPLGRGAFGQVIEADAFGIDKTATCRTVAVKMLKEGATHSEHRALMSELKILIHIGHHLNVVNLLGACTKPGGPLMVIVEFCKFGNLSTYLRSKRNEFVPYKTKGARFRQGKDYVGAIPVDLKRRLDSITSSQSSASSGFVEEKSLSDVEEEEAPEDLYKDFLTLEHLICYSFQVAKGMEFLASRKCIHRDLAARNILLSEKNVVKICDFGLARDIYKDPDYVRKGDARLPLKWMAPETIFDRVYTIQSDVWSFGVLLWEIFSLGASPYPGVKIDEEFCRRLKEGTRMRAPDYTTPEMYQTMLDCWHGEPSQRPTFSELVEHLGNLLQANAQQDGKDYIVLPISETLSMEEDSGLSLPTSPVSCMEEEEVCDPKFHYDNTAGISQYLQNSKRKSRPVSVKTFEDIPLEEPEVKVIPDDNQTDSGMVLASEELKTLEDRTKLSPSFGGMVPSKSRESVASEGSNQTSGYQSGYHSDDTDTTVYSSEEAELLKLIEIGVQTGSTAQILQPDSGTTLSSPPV
Description: The VEGFR tyrosine kinase assays were performed at BPS Bioscience (www.bpsbioscience.com). All the synthesised compounds representing the six series were evaluated for their ability to inhibit VEGFR-2 tyrosine kinase at single dose of 10 µM.
The VEGFR tyrosine kinase activity at single dose concentration of 10 μM was carried out by BPS Bioscience (www.bpsbioscience.com). VEGFR (BPS#40301) served as the enzyme source and Poly (Glu, Tyr) sodium salt, (4:1, Glu:Tyr) (Sigma#P7244) served as the standardized substrate & Kinase-Glo Plus Luminescence kinase assay kit (Promega#V3772). The IC50 determination was carried out where quality control testing is routinely performed on each of the targets to insure compliance to acceptable standards. ^33P-ATP was purchased from Perkin Elmer and ADP-Glo^TM was purchased from Promega. All other materials were of standard laboratory grade.
The VEGFR tyrosine kinase activity was performed using Kinase-Glo Plus luminescence kinase assay kit (Promega). It measures kinase activity by quantitating the amount of ATP remaining in solution following a kinase reaction. The luminescent signal from the assay is correlated with the amount of ATP present and is inversely correlated with the amount of kinase activity. The compounds were diluted to 100 μM in 10% DMSO and […] of the dilution was added to a […] reaction so that the final concentration of DMSO is 1% in all of reactions. All of the enzymatic reactions were conducted at 30 °C for 40 min. The 50 μl reaction mixture contains […], pH 7.4, […], 0.1 mg/ml BSA, 0.2 mg/ml Poly (Glu, Tyr) substrate, 10 μM ATP and VEGFR. After the enzymatic reaction, […] of Kinase-GloPlus Luminescence kinase assay solution (Promega) was added to each reaction and incubate the plate for 5 min at room temperature. Luminescence signal was measured using a BioTek Synergy 2 microplate reader. The protein kinase assays used to determine IC50 value were performed using ADP-GloTM assay kit from Promega which measures the generation of ADP by the protein kinase. Generation of ADP by the protein kinase reaction leads to an increase in luminescence signal in the presence of ADP-GloTM assay kit. The assay was started by incubating the reaction mixture in a 96-well plate at 30 °C for 30 min. After the 30 min incubation period, the assay was terminated by the addition of […] of ADP-GloTM Reagent (Promega). The 96 well plate was shaken and then incubated for 40 min at ambient temperature. […] of Kinase detection reagent was added, the 96-well reaction plate was then read using the ADP-Glo Luminescences Protocol on a GloMax plate reader (Promega: Catalog #E7031). Blank control was set up that included all the assay components except the addition of appropriate substrate (replace with equal volume of kinase assay buffer). The corrected activity for each protein kinase target was determined by removing the blank control value.
VEGFR activity assays were performed in duplicate at each concentration. The luminescence data were analyzed using the computer software, Graphpad Prism. The difference between luminescence intensities in the absence of VEGFR (Lut) and in the presence of VEGFR (Luc) was defined as 100% activity (Lut - Luc). […] IC50 determination for inhibitor against VEGFR was estimated by generating a graph of log inhibitor vs normalized response with variable using the Prism software.

HCT-116 = experiment: In vitro cytotoxic activity, SRB assay; type: cell-based; conditions: Homo sapiens; HCT-116, 48h
Description: (§1) In addition, compounds (12a, 12b, 12c, 16b, 16c and 17b) were evaluated against a third cell line (HepG-2) These first two cell lines were selected based on the sensitivity of the previously NCI-tested derivatives towards them amongst the 60 NCI panel. The growth inhibition is expressed as the median growth inhibitory concentration (IC50) which corresponds to the concentration required for 50% inhibition of cell viability and are provided in (Table S6 in supplementary material).
(§2) 5,000 cells in fresh medium were seeded in 96-well microlitre plates and left to attach for 24h. Cells were incubated with the tested compounds at concentration range from 0,1,2.5,5,10 µg/ml and incubation was continued for48h. After 48h treatment,the cells were fixed with 50µl cold 50% trichloroacetic acid (TCA )for 1h at 4 °C. Wells were then washed 5 times with water and stained for 30 min at room temperature with 50µl of 0.4%SRB dissolved in 1% acetic acid. The wells were then washed 4 times with 1% acetic acid. The plates were air dried and the dye was solubilized with 100µl/well of 10mM tris base (pH 10.5) for 5min on a shaker (Orbital Shaker OS 20,Boeco,Germany) at 1600 rpm. The optical density (O.D.)of each well was measured spectrophotometrically at 564 nm with an enzyme linked immunosorbent assay( ELIZA) micraplate reader (Tecan Sunrise,Austria).The mean back ground absorbance was subtracted automatically and mean values for each drug concentration was calculated.
(§3) The percentage of cell survival was calculated as follows:
(§4) Survival fraction =O.D.(treated cells)/O.D.(control cells)
(§5) The IC50 value (the concentration required to produce 50% inhibition of cell growth) was calculated using sigmodial dose response curve-fitting models (GraphPad,Prizm software incorporated). Each concentration was repeated 3 times.

MCF-7 = experiment: In vitro cytotoxic activity, SRB assay; type: cell-based; conditions: Homo sapiens, MCF7; MCF-7, 48h
Description: as §1, §2, §3, §4, §5

HepG-2 = experiment: In vitro cytotoxic activity, SRB assay; type: cell-based; conditions: Homo sapiens, HepG2; HepG-2, 48h
Description: as §1, §2, §3, §4, §5

Row | inhibition at 10 µM (VEGFR-2 tyrosine kinase) [%] | melting point [°C] | pIC50 (VEGFR-2 tyrosine kinase; 10 μM ATP/0.2 mg/ml poly-Glu-Tyr) | Compound | pIC50 (HCT-116) | pIC50 (MCF-7) | pIC50 (HepG-2)
1 | 5 | 180 to 182 |  | O=C(Nc1ccccc1)Nc1ccc(Oc2nncc3ccccc23)cc1 [Compound 7a, 1-Phenyl-3–(4-(phthalazin-1-yloxy)phenyl)urea] |  |  | 
2 | 47 | 158 to 160 |  | O=C(Nc1ccc(Oc2nncc3ccccc23)cc1)Nc1ccc(Cl)c(C(F)(F)F)c1 [Compound 7c, 1–(4-Chloro-3-(trifluoromethyl)phenyl)-3–(4-(phthalazin-1-yloxy)phenyl)urea] | 5.59 | 5.60 | 
3 | 10 | 174 to 176 |  | Cc1nnc(Oc2ccc(NC(=O)Nc3ccccc3)cc2)c2ccccc12 [Compound 7d] | 5.14 | 5.11 | 
4 | 21 | 150 to 152 |  | Cc1nnc(Oc2ccc(NC(=O)Nc3ccc(Cl)c(C(F)(F)F)c3)cc2)c2ccccc12 [Compound 7f, 1–(4-Chloro-3-(trifluoromethyl)phenyl)-3–(4-(4-metyhlphthalazin-1-yloxy)phenyl)urea] | 4.31 | 4.51 | 
5 | 8 | 242 to 244 |  | c1ccc(N2CCN(c3nncc4ccccc34)CC2)cc1 [Compound 8b, 1–(4-Phenylpiperazin-1-yl)phthalazine] | 3.26 | 3.44 | 
6 | 9 | 88 to 90 |  | Fc1ccccc1N1CCN(c2nncc3ccccc23)CC1 [Compound 8c, 1–(4-(2-Fluorophenyl)piperazin-1-yl)phthalazine] | 4.37 | 4.49 | 
7 | 9 | 90 to 92 |  | O=C(c1ccco1)N1CCN(c2nncc3ccccc23)CC1 [Compound 8e, Furan-2-yl-(4-(phthalazin-1-yl)piperazin-1-yl)methanone] | 3.29 | 3.72 | 
8 | 10 | 90 to 92 |  | Cc1nnc(N2CCN(C(=O)c3ccco3)CC2)c2ccccc12 [Compound 8j, Furan-2-yl-(4–(4-methylphthalazin-1-yl)piperazin-1-yl)methanone] | 3.32 | 3.32 | 
9 | 26 | 225 to 227 |  | O=C(Nc1ccccc1)Nc1ccc(Nc2nnc(Cl)c3ccccc23)cc1 [Compound 12a, 1–(4-(4Chlorophthalazin-1-ylamino)phenyl)-3-phenylurea] | 3.32 | 4.09 | < 3.00
10 | 21 | 164 to 166 |  | Clc1ccc(Nc2nnc(CNc3cccc(Cl)c3)c3ccccc23)cc1 [Compound 16b, N-(4-Chlorophenyl)-4-((3-chlorophenylamino)methyl)phthalazin-1-amine] | 4.54 | 4.04 | 4.11
11 | 19 | 130 to 132 |  | Cc1cccc(NCc2nnc(Nc3ccc(Cl)cc3)c3ccccc23)c1 [Compound 16c, N-(4-Chlorophenyl)-4-((m-tolylamino)methyl)phthalazin-1-amine] | 3.59 | < 3.00 | < 3.00
12 | 15 | 193 to 195 |  | Cc1cccc(OCc2nnc(Nc3ccc(Cl)cc3)c3ccccc23)c1 [Compound 17b, N-(4-Chlorophenyl)-4-(m-tolyloxymethyl)phthalazin-1-amine] | 4.42 | 4.87 | 4.41

The next lines start with the compound.

Row | Compound | inhibition at 10 µM (VEGFR-2 tyrosine kinase) [%] | melting point [°C] | pIC50 (VEGFR-2 tyrosine kinase; 10 μM ATP/0.2 mg/ml poly-Glu-Tyr) | pIC50 (HCT-116) | pIC50 (MCF-7) | pIC50 (HepG-2)
13 | O=C(Nc1ccc(Nc2nncc3ccccc23)cc1)c1ccccc1 [Compound 5a, N-(4-(Phthalazin-1-ylamino)phenyl)benzamide] | 4 | 142 to 144 |  | 3.01 | < 3.00 | 
14 | Cc1nnc(Nc2ccc(NC(=O)c3ccccc3)cc2)c2ccccc12 [Compound 5c, N-(4–(4-Methylphthalazin-1-ylamino)phenyl)benzamide] | 12 | 283 to 285 |  | 4.82 | 4.64 | 
15 | O=C(Nc1ccccc1)Nc1ccc(Nc2nncc3ccccc23)cc1 [Compound 6a, 1-Phenyl-3–(4-(phthalazin-1-ylamino)phenyl)urea] | 13 | 145 to 147 |  | 4.04 | 4.17 | 
16 | O=C(Nc1ccc(Nc2nncc3ccccc23)cc1)Nc1ccc(Cl)c(C(F)(F)F)c1 [Compound 6c, 1–(4-Chloro-3-(trifluoromethyl)phenyl)-3–(4-(phthalazin-1-ylamino)phenyl)urea] | 70 | 288 to 291 | 4.87 | 5.22 | 5.21 | 
17 | Cc1nnc(Nc2ccc(NC(=O)Nc3ccccc3)cc2)c2ccccc12 [Compound 6d, 1–(4-(4-Metyhlphthalazin-1-ylamino)phenyl)3-phenylurea] | 15 | 284 to 286 |  | 4.24 | 4.17 | 
18 | Cc1nnc(Nc2ccc(NC(=O)Nc3ccc(Cl)c(C(F)(F)F)c3)cc2)c2ccccc12 [Compound 6f, 1–(4-Chloro-3-(trifluoromethyl)phenyl)-3–(4-(4-methylphthalazin-1-ylamino)phenyl)-urea] | 32 | 258 to 260 |  | 5.51 | 5.49 | 
19 | COc1cccc2c1C(=O)c1c(O)c3c(c(O)c1C2=O)C[C@@](O)(C(=O)CO)C[C@@H]3O[C@H]1C[C@H](N)[C@H](O)[C@H](C)O1 [Dox, doxorubicin, reference compound] |  |  |  | 6.21 | 6.05 | 6.30
